Where two headings read alike, the source gives them in different places.
Columns and labels:
Assay type in all cases: biochemical
MMP-2h = MMP-2h (Homo sapiens (Human), UniProt P08253); assay: Inhibition constant (Ki) on MMP-2h; details: human MMP-2
How it was run: (§1)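 Compounds are evaluated on human MMPs, and Ki is derived as set out in an earlier publication.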

MMP-10h = MMP-10h (Homo sapiens (Human), UniProt P09238); assay: Inhibition constant (Ki) on MMP-10h; details: human MMP-10
MMP-13h = MMP-13h (Homo sapiens (Human), UniProt P45452); assay: Inhibition constant (Ki) on MMP-13h; details: human MMP-13
How it was run: as §1

MMP-12h = MMP-12h (Homo sapiens (Human), UniProt P39900); assay: Inhibition constant (Ki) on MMP-12h; details: human MMP-12
Chain of MMP-12h (P39900 106-470): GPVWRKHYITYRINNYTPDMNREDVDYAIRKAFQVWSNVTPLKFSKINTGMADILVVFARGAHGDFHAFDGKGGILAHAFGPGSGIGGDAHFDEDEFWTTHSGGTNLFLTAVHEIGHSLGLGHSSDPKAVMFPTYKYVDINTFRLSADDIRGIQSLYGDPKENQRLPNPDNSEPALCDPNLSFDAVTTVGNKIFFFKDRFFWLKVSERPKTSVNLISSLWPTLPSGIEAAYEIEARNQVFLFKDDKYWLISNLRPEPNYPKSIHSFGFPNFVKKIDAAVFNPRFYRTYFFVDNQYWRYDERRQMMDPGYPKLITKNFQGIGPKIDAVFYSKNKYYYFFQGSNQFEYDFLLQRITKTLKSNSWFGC

MMP-9h = MMP-9h (Homo sapiens (Human), UniProt P14780); assay: Inhibition constant (Ki) on MMP-9h; details: human MMP-9
Chain of MMP-9h (P14780 94-707): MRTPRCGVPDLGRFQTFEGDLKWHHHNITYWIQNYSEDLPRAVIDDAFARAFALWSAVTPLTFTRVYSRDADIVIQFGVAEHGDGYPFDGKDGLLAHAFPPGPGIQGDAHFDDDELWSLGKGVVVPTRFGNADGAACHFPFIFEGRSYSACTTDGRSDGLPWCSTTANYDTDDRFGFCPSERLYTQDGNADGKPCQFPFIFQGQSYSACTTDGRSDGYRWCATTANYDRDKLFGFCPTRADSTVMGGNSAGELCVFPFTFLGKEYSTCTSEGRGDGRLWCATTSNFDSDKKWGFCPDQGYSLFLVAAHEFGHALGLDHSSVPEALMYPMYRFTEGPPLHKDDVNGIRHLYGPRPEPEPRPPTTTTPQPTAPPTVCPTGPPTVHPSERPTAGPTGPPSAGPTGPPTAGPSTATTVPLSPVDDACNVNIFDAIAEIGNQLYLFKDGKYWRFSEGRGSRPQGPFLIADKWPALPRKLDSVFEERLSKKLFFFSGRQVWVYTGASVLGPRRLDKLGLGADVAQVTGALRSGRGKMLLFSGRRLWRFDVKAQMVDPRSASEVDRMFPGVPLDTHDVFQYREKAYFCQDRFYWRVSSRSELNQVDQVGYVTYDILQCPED
How it was run: as §1

MMP-14h = MMP-14h (Homo sapiens (Human), UniProt P50281); assay: Inhibition constant (Ki) on MMP-14h; details: human MMP-14
How it was run: as §1

MMP-3h = MMP-3h (Homo sapiens (Human), UniProt P08254); assay: Inhibition constant (Ki) on MMP-3h; details: human MMP-3
Chain of MMP-3h (P08254 100-477): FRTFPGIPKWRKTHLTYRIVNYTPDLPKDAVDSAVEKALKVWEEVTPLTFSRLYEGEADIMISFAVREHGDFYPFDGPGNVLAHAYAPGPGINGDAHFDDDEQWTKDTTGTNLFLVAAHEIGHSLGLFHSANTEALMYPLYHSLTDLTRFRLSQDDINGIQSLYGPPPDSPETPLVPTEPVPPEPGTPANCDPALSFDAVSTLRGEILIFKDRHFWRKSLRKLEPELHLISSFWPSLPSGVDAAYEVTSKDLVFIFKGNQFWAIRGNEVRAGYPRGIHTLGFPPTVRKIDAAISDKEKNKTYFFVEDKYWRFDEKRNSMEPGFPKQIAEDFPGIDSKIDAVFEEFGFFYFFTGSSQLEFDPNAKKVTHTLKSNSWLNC
How it was run: as §1

MMP-8h = MMP-8h (Homo sapiens (Human), UniProt P22894); assay: Inhibition constant (Ki) on MMP-8h; details: human MMP-8
Chain of MMP-8h (P22894 101-467): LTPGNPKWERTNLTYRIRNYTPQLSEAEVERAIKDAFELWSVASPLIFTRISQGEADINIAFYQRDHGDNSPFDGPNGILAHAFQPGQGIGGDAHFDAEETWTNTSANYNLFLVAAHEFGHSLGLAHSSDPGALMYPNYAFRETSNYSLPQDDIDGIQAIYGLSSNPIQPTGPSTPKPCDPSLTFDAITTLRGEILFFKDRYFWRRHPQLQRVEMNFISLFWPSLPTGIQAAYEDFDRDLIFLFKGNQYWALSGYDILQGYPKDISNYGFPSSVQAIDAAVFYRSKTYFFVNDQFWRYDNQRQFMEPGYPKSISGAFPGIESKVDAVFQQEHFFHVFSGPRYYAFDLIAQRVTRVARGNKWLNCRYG

Chain of MMP-2h (P08253 110-660): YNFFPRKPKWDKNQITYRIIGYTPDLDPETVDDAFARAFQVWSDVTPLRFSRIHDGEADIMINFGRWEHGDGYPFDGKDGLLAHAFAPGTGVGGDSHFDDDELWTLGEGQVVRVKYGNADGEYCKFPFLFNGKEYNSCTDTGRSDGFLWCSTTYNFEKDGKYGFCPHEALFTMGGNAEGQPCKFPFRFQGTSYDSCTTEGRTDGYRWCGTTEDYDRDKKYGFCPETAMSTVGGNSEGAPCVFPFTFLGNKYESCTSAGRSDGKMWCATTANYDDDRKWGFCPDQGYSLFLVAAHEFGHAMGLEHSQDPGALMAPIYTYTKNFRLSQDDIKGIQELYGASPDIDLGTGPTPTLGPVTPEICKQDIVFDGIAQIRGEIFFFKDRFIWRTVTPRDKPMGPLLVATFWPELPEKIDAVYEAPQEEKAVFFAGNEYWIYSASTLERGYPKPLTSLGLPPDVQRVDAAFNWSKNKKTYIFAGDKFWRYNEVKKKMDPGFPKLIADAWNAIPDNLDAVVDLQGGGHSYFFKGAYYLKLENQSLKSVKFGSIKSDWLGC
Chain of MMP-10h (P09238 99-476): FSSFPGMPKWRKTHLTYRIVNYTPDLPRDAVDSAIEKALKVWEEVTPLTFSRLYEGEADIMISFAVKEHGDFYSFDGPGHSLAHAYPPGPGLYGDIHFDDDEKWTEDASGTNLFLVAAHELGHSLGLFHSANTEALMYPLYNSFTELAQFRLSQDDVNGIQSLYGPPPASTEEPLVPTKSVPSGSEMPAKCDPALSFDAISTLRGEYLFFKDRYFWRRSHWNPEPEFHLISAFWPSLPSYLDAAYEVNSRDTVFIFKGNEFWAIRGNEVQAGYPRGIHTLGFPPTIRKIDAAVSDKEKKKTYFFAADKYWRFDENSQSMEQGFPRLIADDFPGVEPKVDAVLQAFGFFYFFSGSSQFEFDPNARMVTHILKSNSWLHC

Compound: NC(=O)[C@H](CCC(=O)O)NC(=O)[C@H](CCC(=O)O)NC(=O)CCc1ccc(-c2cccc(C(=O)O)c2)cc1 [Compound 56, 4′-(3-((S)-1-((S)-1-amino-4-carboxy-1-oxobutan-2-ylamino)-4-carboxy-1-oxobutan-2-ylamino)-3-oxopropyl)biphenyl-3-carboxylic acid]
- Ki (MMP-2h; read-out: Ki MMP-2h): > 5 µM
- Ki (MMP-10h; read-out: Ki MMP-10h): > 10 µM
- Ki (MMP-13h; read-out: Ki MMP-13h): > 5 µM
- Ki (MMP-12h; read-out: Ki MMP-12h): 0.091 µM
- Ki (MMP-9h; read-out: Ki MMP-9h): > 1 µM
- Ki (MMP-14h; read-out: Ki MMP-14h): > 10 µM
- Ki (MMP-3h; read-out: Ki MMP-3h): > 10 µM
- Ki (MMP-8h; read-out: Ki MMP-8h): > 1 µM

Compound: NC(=O)[C@H](CCC(=O)O)NC(=O)CCc1cc(-c2ccc(-c3cccc(Cl)c3)cc2)no1 [Compound 4, (S)-5-amino-4-(3-(3-(3′-chlorobiphenyl-4-yl)isoxazol-5-yl)propanamido)-5-oxopentanoic acid]
- Ki (MMP-2h; read-out: Ki MMP-2h): 0.09 µM
- Ki (MMP-10h; read-out: Ki MMP-10h): 0.122 µM
- Ki (MMP-13h; read-out: Ki MMP-13h): 0.046 µM
- Ki (MMP-12h; read-out: Ki MMP-12h): 0.0118 µM
- Ki (MMP-9h; read-out: Ki MMP-9h): 0.12 µM
- Ki (MMP-14h; read-out: Ki MMP-14h): > 1 µM
- Ki (MMP-3h; read-out: Ki MMP-3h): 0.118 µM
- Ki (MMP-8h; read-out: Ki MMP-8h): 0.119 µM

Compound: CC(C)C[C@H](NC(=O)[C@H](CCC(=O)O)NC(=O)CCc1ccc(-c2cccs2)cc1)C(N)=O [Compound 88, (S)-5-((S)-1-amino-4-methyl-1-oxopentan-2-ylamino)-5-oxo-4-(3-(4-(thiophen-2-yl)phenyl)propanamido)pentanoic acid]
- Ki (MMP-2h; read-out: Ki MMP-2h): 0.298 µM
- Ki (MMP-10h; read-out: Ki MMP-10h): > 1 µM
- Ki (MMP-13h; read-out: Ki MMP-13h): > 1 µM
- Ki (MMP-12h; read-out: Ki MMP-12h): 0.032 µM
- Ki (MMP-9h; read-out: Ki MMP-9h): > 1 µM
- Ki (MMP-14h; read-out: Ki MMP-14h): > 1 µM
- Ki (MMP-3h; read-out: Ki MMP-3h): > 10 µM
- Ki (MMP-8h; read-out: Ki MMP-8h): 0.073 µM

Compound: Cc1ccsc1-c1ccc(CCC(=O)N[C@@H](CCC(=O)O)C(=O)N[C@@H](CCC(=O)O)C(N)=O)cc1 [Compound 107, (S)-5-amino-4-((S)-4-carboxy-2-(3-(4-(3-methylthiophen-2-yl)phenyl)propanamido)butanamido)-5-oxopentanoic acid]
- Ki (MMP-2h; read-out: Ki MMP-2h): > 1 µM
- Ki (MMP-10h; read-out: Ki MMP-10h): > 1 µM
- Ki (MMP-13h; read-out: Ki MMP-13h): > 1 µM
- Ki (MMP-12h; read-out: Ki MMP-12h): 0.084 µM
- Ki (MMP-9h; read-out: Ki MMP-9h): > 10 µM
- Ki (MMP-14h; read-out: Ki MMP-14h): > 5 µM
- Ki (MMP-3h; read-out: Ki MMP-3h): > 10 µM
- Ki (MMP-8h; read-out: Ki MMP-8h): 0.766 µM

Compound: NC(=O)CC[C@H](NC(=O)[C@H](CCC(N)=O)NC(=O)CCc1ccc(-c2ccccc2)cc1)C(N)=O [Compound 43, (S)-2-(3-(biphenyl-4-yl)propanamido)-N^1-((S)-1,5-diamino-1,5-dioxopentan-2-yl)pentanediamide]
- Ki (MMP-2h; read-out: Ki MMP-2h): 0.319 µM
- Ki (MMP-10h; read-out: Ki MMP-10h): > 5 µM
- Ki (MMP-13h; read-out: Ki MMP-13h): 0.259 µM
- Ki (MMP-12h; read-out: Ki MMP-12h): 0.306 µM
- Ki (MMP-9h; read-out: Ki MMP-9h): > 1 µM
- Ki (MMP-14h; read-out: Ki MMP-14h): > 5 µM
- Ki (MMP-3h; read-out: Ki MMP-3h): > 1 µM
- Ki (MMP-8h; read-out: Ki MMP-8h): 0.657 µM

Compound: NC(=O)CC[C@H](NC(=O)CCc1ccc(-c2ccc(-c3ccccc3)cc2)cc1)C(=O)N[C@@H](CCC(=O)O)C(N)=O [Compound 72, (S)-5-amino-4-((S)-5-amino-2-(3-(4′-phenylbiphenyl-4-yl)propanamido)-5-oxopentanamido)-5-oxopentanoic acid]
- Ki (MMP-2h): 0.386 µM
- Ki (MMP-10h): > 1 µM
- Ki (MMP-13h): 0.18 µM
- Ki (MMP-12h): 0.134 µM
- Ki (MMP-9h): > 5 µM
- Ki (MMP-14h): > 5 µM
- Ki (MMP-3h): 0.064 µM
- Ki (MMP-8h): > 1 µM

Compound: NC(=O)[C@H](CCC(=O)O)NC(=O)[C@H](CCC(=O)O)NC(=O)CCc1ccc(-n2cccc2)cc1 [Compound 36, (S)-4-(3-(4-(1H-pyrrol-1-yl)phenyl)propanamido)-5-((S)-1-amino-4-carboxy-1-oxobutan-2-ylamino)-5-oxopentanoic acid]
- Ki (MMP-2h): > 1 µM
- Ki (MMP-10h): > 1 µM
- Ki (MMP-13h): > 1 µM
- Ki (MMP-12h): 0.059 µM
- Ki (MMP-9h): > 1 µM
- Ki (MMP-14h): > 5 µM
- Ki (MMP-3h): > 1 µM
- Ki (MMP-8h): 0.373 µM

Compound: NCCCC[C@H](NC(=O)[C@H](CCC(=O)O)NC(=O)CCc1ccc(-c2ccccc2)cc1)C(N)=O [Compound 44, (S)-4-(3-(biphenyl-4-yl)propanamido)-5-((S)-1,6-diamino-1-oxohexan-2-ylamino)-5-oxopentanoic acid]
- Ki (MMP-2h; read-out: Ki MMP-2h): > 1 µM
- Ki (MMP-10h; read-out: Ki MMP-10h): > 5 µM
- Ki (MMP-13h; read-out: Ki MMP-13h): > 1 µM
- Ki (MMP-12h; read-out: Ki MMP-12h): 0.119 µM
- Ki (MMP-9h; read-out: Ki MMP-9h): > 5 µM
- Ki (MMP-14h; read-out: Ki MMP-14h): > 5 µM
- Ki (MMP-3h; read-out: Ki MMP-3h): > 10 µM
- Ki (MMP-8h; read-out: Ki MMP-8h): 0.414 µM

Compound: NC(=O)[C@H](CCC(=O)O)NC(=O)[C@H](CC(=O)O)NC(=O)CCc1ccc(-c2cc(-c3ccccc3)cs2)cc1 [Compound 100, (S)-5-amino-4-((S)-3-carboxy-2-(3-(4-(4-phenylthiophen-2-yl)phenyl)propanamido)propanamido)-5-oxopentanoic acid]
- Ki (MMP-2h; read-out: Ki MMP-2h): 0.862 µM
- Ki (MMP-10h; read-out: Ki MMP-10h): > 1 µM
- Ki (MMP-13h; read-out: Ki MMP-13h): 0.559 µM
- Ki (MMP-12h; read-out: Ki MMP-12h): 0.0151 µM
- Ki (MMP-9h; read-out: Ki MMP-9h): > 1 µM
- Ki (MMP-14h; read-out: Ki MMP-14h): > 1 µM
- Ki (MMP-3h; read-out: Ki MMP-3h): > 1 µM
- Ki (MMP-8h; read-out: Ki MMP-8h): 0.559 µM

Compound: NC(=O)[C@H](CCC(=O)O)NC(=O)CCc1cc(-c2ccccc2)no1 [Compound 15, (S)-5-amino-5-oxo-4-(3-(3-phenylisoxazol-5-yl)propanamido)pentanoic acid]
- Ki (MMP-2h; read-out: Ki MMP-2h): 0.762 µM
- Ki (MMP-10h; read-out: Ki MMP-10h): > 5 µM
- Ki (MMP-13h; read-out: Ki MMP-13h): > 1 µM
- Ki (MMP-12h; read-out: Ki MMP-12h): 0.398 µM
- Ki (MMP-9h; read-out: Ki MMP-9h): > 1 µM
- Ki (MMP-14h; read-out: Ki MMP-14h): > 1 µM
- Ki (MMP-3h; read-out: Ki MMP-3h): > 10 µM
- Ki (MMP-8h; read-out: Ki MMP-8h): 0.114 µM

Compound: NC(=O)[C@H](Cc1ccc(O)cc1)NC(=O)[C@H](CCC(=O)O)NC(=O)CCc1ccc(-c2ccc(-c3ccccc3)cc2)cc1 [Compound 65, (S)-5-((S)-1-amino-3-(4-hydroxyphenyl)-1-oxopropan-2-ylamino)-4-(3-(4′-phenylbiphenyl-4-yl)propanamido)-5-oxopentanoic acid]
- Ki (MMP-2h; read-out: Ki MMP-2h): 0.073 µM
- Ki (MMP-10h; read-out: Ki MMP-10h): 0.119 µM
- Ki (MMP-13h; read-out: Ki MMP-13h): 0.033 µM
- Ki (MMP-12h; read-out: Ki MMP-12h): 0.0066 µM
- Ki (MMP-9h; read-out: Ki MMP-9h): > 1 µM
- Ki (MMP-14h; read-out: Ki MMP-14h): > 1 µM
- Ki (MMP-3h; read-out: Ki MMP-3h): 0.62 µM
- Ki (MMP-8h; read-out: Ki MMP-8h): 0.793 µM

Compound: NCCCC[C@H](NC(=O)CCc1ccc(-c2ccc(-c3ccccc3)cc2)cc1)C(=O)N[C@@H](CCC(=O)O)C(N)=O [Compound 73, (S)-5-amino-4-((S)-6-amino-2-(3-(4′-phenylbiphenyl-4-yl)propanamido)hexanamido)-5-oxopentanoic acid]
- Ki (MMP-2h; read-out: Ki MMP-2h): 0.541 µM
- Ki (MMP-10h; read-out: Ki MMP-10h): > 1 µM
- Ki (MMP-13h; read-out: Ki MMP-13h): 0.097 µM
- Ki (MMP-12h; read-out: Ki MMP-12h): 0.254 µM
- Ki (MMP-9h; read-out: Ki MMP-9h): > 10 µM
- Ki (MMP-14h; read-out: Ki MMP-14h): > 10 µM
- Ki (MMP-3h; read-out: Ki MMP-3h): 0.3 µM
- Ki (MMP-8h; read-out: Ki MMP-8h): > 1 µM

Compound: C[C@H](NC(=O)[C@H](CCC(=O)O)NC(=O)CCc1ccc(-c2ccc(-c3ccccc3)cc2)cc1)C(N)=O [Compound 66, (S)-5-((S)-1-amino-1-oxopropan-2-ylamino)-4-(3-(4′-phenylbiphenyl-4-yl)propanamido)-5-oxopentanoic acid]
- Ki (MMP-2h; read-out: Ki MMP-2h): 0.049 µM
- Ki (MMP-10h; read-out: Ki MMP-10h): 0.13 µM
- Ki (MMP-13h; read-out: Ki MMP-13h): 0.0164 µM
- Ki (MMP-12h; read-out: Ki MMP-12h): 0.0022 µM
- Ki (MMP-9h; read-out: Ki MMP-9h): > 10 µM
- Ki (MMP-14h; read-out: Ki MMP-14h): > 10 µM
- Ki (MMP-3h; read-out: Ki MMP-3h): 0.238 µM
- Ki (MMP-8h; read-out: Ki MMP-8h): 0.532 µM

Compound: C[C@H](NC(=O)[C@H](CCC(=O)O)NC(=O)CCc1ccc(-c2cccs2)cc1)C(N)=O [Compound 85, (S)-5-((S)-1-amino-1-oxopropan-2-ylamino)-5-oxo-4-(3-(4-(thiophen-2-yl)phenyl)propanamido)pentanoic acid]
- Ki (MMP-2h; read-out: Ki MMP-2h): 0.348 µM
- Ki (MMP-10h; read-out: Ki MMP-10h): 0.835 µM
- Ki (MMP-13h; read-out: Ki MMP-13h): > 1 µM
- Ki (MMP-12h; read-out: Ki MMP-12h): 0.0256 µM
- Ki (MMP-9h; read-out: Ki MMP-9h): > 5 µM
- Ki (MMP-14h; read-out: Ki MMP-14h): > 1 µM
- Ki (MMP-3h; read-out: Ki MMP-3h): > 10 µM
- Ki (MMP-8h; read-out: Ki MMP-8h): 0.062 µM

Compound: NC(=O)[C@H](CCC(=O)O)NC(=O)[C@H](CCC(=O)O)NC(=O)CCc1ccc(-c2ccc(-c3nc4ccccc4s3)s2)cc1 [Compound 93, (S)-5-amino-4-((S)-2-(3-(4-(5-(benzo[d]thiazol-2-yl)thiophen-2-yl)phenyl)propanamido)-4-carboxybutanamido)-5-oxopentanoic acid]
- Ki (MMP-2h; read-out: Ki MMP-2h): > 1 µM
- Ki (MMP-10h; read-out: Ki MMP-10h): 0.0388 µM
- Ki (MMP-13h; read-out: Ki MMP-13h): 0.033 µM
- Ki (MMP-12h; read-out: Ki MMP-12h): 0.017 µM
- Ki (MMP-9h; read-out: Ki MMP-9h): > 1 µM
- Ki (MMP-14h; read-out: Ki MMP-14h): > 5 µM
- Ki (MMP-3h; read-out: Ki MMP-3h): > 1 µM
- Ki (MMP-8h; read-out: Ki MMP-8h): 0.307 µM

— patent publication US8691753B2 (priority 2009, dated 2014)
